Measurements published in patent US6852735B1, “Siastatin B derivatives having a glycosidase inhibitory activity and processes for producing the same” (Zaidan Hojin Biseibutsu Kagaku Kenkyu Kai, priority 1998, dated 2005).
Structures can show the parent of a compound that is named as a salt.

Row | Structure (SMILES) | melting point
1 | CC(=O)NC1NCC(CO)C(O)C1O (stereo not drawn) (as salt: hydrochloride) [Formula (V), 3-decarboxy-4-epi-3-hydroxymethyl-siastain B] | 201 to 202 °C (dec.)
2 | O=C(N[C@H]1NC[C@H](CO)[C@@H](O)[C@@H]1O)C(F)(F)F (as salt: hydrochloride) [Formula (X), 6-deacetamido-3-decarboxy-4-epi-3-hydroxymethyl-6-trifluoroacetamido-siastain B] | 88 to 90 °C
